Test system: male mice
Assay: General behavior of male mice, visual observation using a checklist of behaviors;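 also: oral administration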
Format: in vivo
Details: for Number of Mice Affected: Reduced Skin Plasticity / Number of Mice Affected: Soft Body Tone / Number of Mice Affected: Tail Pinch Response, Absent / Number of Mice Affected: Decreased Open Field Activity / Number of Mice Affected: Decreased Startle Reflex / Number of Mice Affected: Extensor Limb Tone (hind limb) / Number of Mice Affected: Impaired Horizontal Screen Performance / Number of Mice Affected: Impaired Visual Placing Reflex / Number of Mice Affected: Locomotor Ataxia / Number of Mice Affected: Loss of Corneal Reflex / Number of Mice Affected: Loss of Pinnal Reflex / Number of Mice Affected: Loss of Righting Reflex / Number of Mice Affected: Passive Response to Handling: N = 3/group
Experimental: The effects of test compound on general behavior were evaluated by visual observation using a checklist of behaviors.

Number of Mice Affected: Reduced Skin Plasticity (100 mg/kg p.o., 1 h): 0
Number of Mice Affected: Soft Body Tone (100 mg/kg p.o., 1 h): 0
Number of Mice Affected: Tail Pinch Response, Absent (100 mg/kg p.o., 1 h): 0
Number of Mice Affected: Decreased Open Field Activity (100 mg/kg p.o., 4 h): 0
Number of Mice Affected: Decreased Startle Reflex (100 mg/kg p.o., 4 h): 0
Number of Mice Affected: Extensor Limb Tone (hind limb) (100 mg/kg p.o., 4 h): 0
Number of Mice Affected: Impaired Horizontal Screen Performance (100 mg/kg p.o., 4 h): 0
Number of Mice Affected: Impaired Visual Placing Reflex (100 mg/kg p.o., 4 h): 0
Number of Mice Affected: Loss of Corneal Reflex (100 mg/kg p.o., 4 h): 0
Number of Mice Affected: Loss of Pinnal Reflex (100 mg/kg p.o., 4 h): 0
Number of Mice Affected: Loss of Righting Reflex (100 mg/kg p.o., 4 h): 0
Number of Mice Affected: Passive Response to Handling (100 mg/kg p.o., 4 h): 0
Number of Mice Affected: Reduced Skin Plasticity (100 mg/kg p.o., 4 h): 0
Number of Mice Affected: Soft Body Tone (100 mg/kg p.o., 4 h): 0
Number of Mice Affected: Tail Pinch Response, Absent (100 mg/kg p.o., 4 h): 0
Number of Mice Affected: Decreased Open Field Activity (300 mg/kg p.o., 1 h): 3
Number of Mice Affected: Decreased Startle Reflex (300 mg/kg p.o., 1 h): 3
Number of Mice Affected: Extensor Limb Tone (hind limb) (300 mg/kg p.o., 1 h): 3
Number of Mice Affected: Impaired Horizontal Screen Performance (300 mg/kg p.o., 1 h): 3
Number of Mice Affected: Impaired Visual Placing Reflex (300 mg/kg p.o., 1 h): 3
Number of Mice Affected: Loss of Corneal Reflex (300 mg/kg p.o., 1 h): 3
Number of Mice Affected: Loss of Pinnal Reflex (300 mg/kg p.o., 1 h): 3
Number of Mice Affected: Loss of Righting Reflex (300 mg/kg p.o., 1 h): 3
Number of Mice Affected: Passive Response to Handling (300 mg/kg p.o., 1 h): 3
Number of Mice Affected: Reduced Skin Plasticity (300 mg/kg p.o., 1 h): 3
Number of Mice Affected: Soft Body Tone (300 mg/kg p.o., 1 h): 3
Number of Mice Affected: Tail Pinch Response, Absent (300 mg/kg p.o., 1 h): 3
Number of Mice Affected: Decreased Open Field Activity (300 mg/kg p.o., 4 h): 2
Number of Mice Affected: Decreased Startle Reflex (300 mg/kg p.o., 4 h): 0
Number of Mice Affected: Extensor Limb Tone (hind limb) (300 mg/kg p.o., 4 h): 2
Number of Mice Affected: Impaired Horizontal Screen Performance (300 mg/kg p.o., 4 h): 2
Number of Mice Affected: Impaired Visual Placing Reflex (300 mg/kg p.o., 4 h): 0
Number of Mice Affected: Loss of Corneal Reflex (300 mg/kg p.o., 4 h): 0
Number of Mice Affected: Loss of Pinnal Reflex (300 mg/kg p.o., 4 h): 0
Number of Mice Affected: Loss of Righting Reflex (300 mg/kg p.o., 4 h): 0
Number of Mice Affected: Passive Response to Handling (300 mg/kg p.o., 4 h): 0
Number of Mice Affected: Reduced Skin Plasticity (300 mg/kg p.o., 4 h): 0
Number of Mice Affected: Soft Body Tone (300 mg/kg p.o., 4 h): 2
Number of Mice Affected: Tail Pinch Response, Absent (300 mg/kg p.o., 4 h): 0
Structure (SMILES): NC(=O)OC[C@@H](O)c1ccccc1Cl [COMPOUND #7]
Number of Mice Affected: Locomotor Ataxia (100 mg/kg p.o., 4 h): 0
Behavioral or physical signs (general behavior) (300 mg/kg p.o.): produced sedation
Number of Mice Affected: Locomotor Ataxia (300 mg/kg p.o., 1 h): 0
Number of Mice Affected: Locomotor Ataxia (300 mg/kg p.o., 4 h): 2
Behavioral or physical signs (general behavior) (doses up to 100 mg/kg p.o.): No behavioral or physical signs were observed

Source: patent US20080103199A1, “TREATMENT OF PERVASIVE DEVELOPMENTAL DISORDERS” (priority 2006, published 2008)
